The values below come from paper PMC5608352, “Formyl peptide derived lipopeptides disclose differences between the receptors in mouse and men and call the pepducin concept in question” (PLoS ONE, 2017).

SMILES strings stand for the structures. Residues, ends and D or L forms follow the SMILES beside them. *: point of attachment. Palmitoyl = CCCCCCCCCCCCCCCC(=O)*

The test system of one test is Fpr1. Briefly: Inhibition of fMIFL-induced superoxide release, WT mouse neutrophils. The settings on record: fMIFL 10 nM; mF2Pal16 1 μM (inset) or 500 nM. It counts as cell-based. The text has this: Mice (8–12 weeks of age) were killed by cervical dislocation, the femurs and tibias were removed and freed of soft tissue attachments, and the extreme distal tip of each extremity was cut off. KRG without Ca^2+ and Mg^2+ (KRG-) was forced through the bone by using a 1-mL syringe with a 27-gauge needle. After dispersing cell clumps and removing the debris, the bone marrow granulocytes were isolated according to an earlier described procedure with some modifications. Briefly, a cell suspension in 2 mL of KRG- was laid on top of a three-layer Percoll gradient (1.095, 1.085, and 1.070 g/mL). The density of each Percoll solution was verified using density marker beads. […] The cell number and population of bone marrow cells were determined by flow cytometry based on forward scatter (size) and side scatter (density) localization.
NADPH-oxidase activity was determined using an isoluminol and HRP-enhanced chemiluminescence (CL) system that allow for the determination of superoxide production. The CL activity was measured in a six-channel Biolumat LB 9505 apparatus (Berthold Co., Wildbad, Germany), using disposable 4-mL polypropylene tubes with 1 mL reaction mixture. […] The light emission was recorded continuously over time and presented as superoxide production (in arbitrary light units, cpm x10^-6) as a function of time (min). […]

Another test has as its target T1, FPR2 (Homo sapiens, UniProt P25090).
T1 construct: Human peripheral blood neutrophils were isolated from buffy coats from healthy blood donors; endogenous in cells; host or cells: human peripheral blood neutrophils from buffy coats of healthy donors
T1 sequence (P25090 1-351): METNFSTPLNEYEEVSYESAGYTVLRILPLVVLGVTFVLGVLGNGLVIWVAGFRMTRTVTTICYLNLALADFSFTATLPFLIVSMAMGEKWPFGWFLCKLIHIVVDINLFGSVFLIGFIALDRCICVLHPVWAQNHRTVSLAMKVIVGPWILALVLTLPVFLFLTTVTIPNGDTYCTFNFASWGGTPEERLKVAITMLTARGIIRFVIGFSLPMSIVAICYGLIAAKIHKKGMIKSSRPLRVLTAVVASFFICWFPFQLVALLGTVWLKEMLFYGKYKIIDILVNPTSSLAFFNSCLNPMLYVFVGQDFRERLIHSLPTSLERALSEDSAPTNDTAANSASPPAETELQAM
Briefly: Inhibition of WKYMVM-induced superoxide release, human neutrophils. It counts as cell-based. The text has this:
Human peripheral blood neutrophils were isolated from buffy coats from healthy blood donors using dextran sedimentation and Ficoll-Paque gradient centrifugation as described. The remaining erythrocytes were disrupted by hypotonic lysis and the neutrophils were washed twice, suspended in KRG and, stored on melting ice until use. This isolation process permits cells to be purified with minimal granule mobilization. The buffy coats were obtained from the blood bank at Sahlgrenska University Hospital. Ethics approval was not needed since the buffy coats were provided anonymously and could not be traced back to a specific individual. This is in line with Swedish legislation section code 4§ 3p SFS 2003:460 (Lag om etikprövning av forskning som avser människor).
NADPH-oxidase activity was determined using an isoluminol and HRP-enhanced chemiluminescence (CL) system that allow for the determination of superoxide production. The CL activity was measured in a six-channel Biolumat LB 9505 apparatus (Berthold Co., Wildbad, Germany), using disposable 4-mL polypropylene tubes with 1 mL reaction mixture. The tubes contained 4 U HRP and 10 μg/mL isoluminol together with the cells that were equilibrated in the Biolumat for 5 min at 37°C, after which the stimulus solution (100 μL) was added. The light emission was recorded continuously over time and presented as superoxide production (in arbitrary light units, cpm x10^-6) as a function of time (min). The activity before stimulus addition was recorded as basal line and this activity was not changed in vehicle control samples. […]
Data analysis was performed using Graph Pad Prism 7.0. The EC50/IC50 values were determined from experiments in which the activities were normalized to the response induced by maximal response or induced by agonist in the absence of inhibitor. […]
Human neutrophils (10^5 cells) were pre-incubated without (solid line) or with mF2Pal16 (1 μM) for 5 min before stimulation with A) the FPR2 specific agonist WKYMVM (50 nM, indicated by the arrow). […] The release of superoxide anions was measured continuously. […]

For the molecule `CCCCCCCCCCCCCCCC(=O)N[C@@H](CCCCN)C(=O)N[C@H](C(=O)N[C@@H](CC(N)=O)C(=O)N[C@@H](CCCNC(=N)N)C(=O)N[C@@H](CCCNC(=N)N)C(=O)N[C@@H](CC(N)=O)C(=O)N[C@@H](CC(C)C)C(=O)N[C@H](C(=O)N[C@@H](CC(N)=O)C(=O)N[C@@H](CO)C(=O)N[C@@H](CO)C(=O)N[C@@H](CCCNC(=N)N)C(=O)N1CCC[C@H]1C(=O)N[C@@H](CC(C)C)C(=O)N[C@@H](CCCNC(=N)N)C(=O)N[C@H](C(=O)O)C(C)C)C(C)C)[C@@H](C)CC` [mF2Pal16] (Palmitoyl-KINRRNLVNSSRPLRV-OH; C-terminus assumed), the “effect on fMIFL response, mouse neutrophils” value in the test on Fpr1 was “no effect”. The “magnitude of FPR2 inhibitory effect compared with PBP10” value at FPR2 (human neutrophils) is “not of the same magnitude as that of the most potent FPR2 inhibitor PBP10”. For the same molecule, the “effect on WKYMVM response, human neutrophils” value on FPR2 (pepducin 1 μM pre-incubated (mF2Pal16, F1Pal16: 5 min), WKYMVM 50 nM) is recorded as “largely inhibited”.
